Measured values: US20230102554A1 (GB002, INC., priority 2019, published 2023)

What was measured:
[1] = biological target: T1, Human PDGFRα, cytoplasmic domain (GST-PDGFRα) (Homo sapiens, UniProt P16234); assay: Human PDGFRα biochemical inhibition assay (off-chip Mobility Shift Assay)
T1 construct: made in house

[2] = biological target: T2, Human PDGFRβ, cytoplasmic domain (GST-PDGFRβ) (Homo sapiens, UniProt P09619); assay: Human PDGFRβ biochemical inhibition assay (off-chip Mobility Shift Assay)
T2 construct: made in house
T2 sequence (P09619 with tags, fused parts or gaps): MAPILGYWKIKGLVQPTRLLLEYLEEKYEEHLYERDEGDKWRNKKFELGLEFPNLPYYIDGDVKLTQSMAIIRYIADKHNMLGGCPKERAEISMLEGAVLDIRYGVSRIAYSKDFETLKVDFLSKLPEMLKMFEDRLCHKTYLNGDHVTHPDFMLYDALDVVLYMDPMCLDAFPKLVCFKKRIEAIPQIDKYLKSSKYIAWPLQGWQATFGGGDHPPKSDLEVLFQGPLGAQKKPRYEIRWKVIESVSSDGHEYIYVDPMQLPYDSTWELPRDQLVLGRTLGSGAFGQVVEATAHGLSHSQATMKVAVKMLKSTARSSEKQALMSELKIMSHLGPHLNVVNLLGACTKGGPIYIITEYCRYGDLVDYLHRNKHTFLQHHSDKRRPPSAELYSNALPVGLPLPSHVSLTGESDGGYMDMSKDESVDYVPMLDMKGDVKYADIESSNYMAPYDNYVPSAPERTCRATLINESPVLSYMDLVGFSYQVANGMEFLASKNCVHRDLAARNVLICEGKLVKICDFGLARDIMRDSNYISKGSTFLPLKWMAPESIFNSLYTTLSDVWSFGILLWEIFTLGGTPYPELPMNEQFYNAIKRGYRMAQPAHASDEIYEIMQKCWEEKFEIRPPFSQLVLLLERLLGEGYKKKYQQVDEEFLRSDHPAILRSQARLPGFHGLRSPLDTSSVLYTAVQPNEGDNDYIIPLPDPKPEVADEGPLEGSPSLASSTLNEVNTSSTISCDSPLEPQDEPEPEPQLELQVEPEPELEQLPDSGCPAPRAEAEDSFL
Procedure, shortened: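 GST-tagged cytoplasmic domain (aa 557-1106) from baculovirus was incubated 1 h at room temperature with compound, CSKtide, ATP at Km and Mg²⁺ in HEPES buffer, pH 7.5. Phosphorylated and unphosphorylated peptide were separated by off-chip mobility shift, and the product ratio P/(P+S) gave percent inhibition.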

T1 sequence (P16234 550-1089 T674I): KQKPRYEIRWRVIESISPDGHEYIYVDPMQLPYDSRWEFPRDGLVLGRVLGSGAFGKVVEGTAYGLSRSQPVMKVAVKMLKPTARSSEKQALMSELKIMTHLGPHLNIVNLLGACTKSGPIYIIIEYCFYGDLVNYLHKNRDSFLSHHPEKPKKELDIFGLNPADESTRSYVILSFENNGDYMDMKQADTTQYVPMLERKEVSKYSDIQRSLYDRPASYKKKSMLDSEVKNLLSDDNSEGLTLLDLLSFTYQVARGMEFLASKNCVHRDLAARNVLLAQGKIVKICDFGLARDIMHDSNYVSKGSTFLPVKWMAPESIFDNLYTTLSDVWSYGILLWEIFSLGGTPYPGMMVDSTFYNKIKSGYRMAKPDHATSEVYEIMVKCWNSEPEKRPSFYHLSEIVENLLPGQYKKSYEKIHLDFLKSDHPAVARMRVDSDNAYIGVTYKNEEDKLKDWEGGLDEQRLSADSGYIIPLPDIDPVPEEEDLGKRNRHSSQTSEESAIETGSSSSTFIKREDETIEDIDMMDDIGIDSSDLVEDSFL

Row | Compound | IC50 [1] | IC50 [2]
1 | CCn1cc2ncc(N[C@@H](C)c3cc(NC(=O)Cc4ccc(Cl)c(C)n4)ccc3F)nc2n1 [Compound 668, (S)-2-(5-chloro-6-methylpyridin-2-yl)-N-(3-(1-((2-ethyl-2H-pyrazolo[3,4-b]pyrazin-6-yl)amino)ethyl)-4-fluorophenyl)acetamide] | < 300 nM | < 300 nM
2 | CCn1cc2ncc(N[C@@H](C)c3cc(NC(=O)Cc4ccc(C5CCC5)cn4)ccc3C)nc2n1 [Compound 669, (S)-2-(5-cyclobutylpyridin-2-yl)-N-(3-(1-((2-ethyl 2H-pyrazolo[3,4-b]pyrazin-6-yl)amino)ethyl)-4-methylphenyl) acetamide] | < 300 nM | 300 to 1000 nM
3 | CCn1cc2ncc(N[C@@H](C)c3cc(NC(=O)Cc4ccc(Cl)c(C)n4)ccc3C)nc2n1 [Compound 670, (S)-2-(5-chloro-6-methylpyridin-2-yl)-N-(3-(1-((2-ethyl-2H-pyrazolo[3,4-b]pyrazin-6-yl)amino)ethyl)-4-methylphenyl)acetamide] | < 300 nM | < 300 nM
4 | CCn1cc2ncc(N[C@@H](C)c3cc(NC(=O)Cc4ccc(C5CCC5)nc4)ccc3F)nc2n1 [Compound 671, (S)-2-(6-cyclobutylpyridin-3-yl)-N-(3-(1-((2-ethyl-2H-pyrazolo[3,4-b]pyrazin-6-yl)amino)ethyl)-4-fluorophenyl) acetamide] | < 300 nM | ≥ 1000 nM
5 | CCn1cc2ncc(N[C@@H](C)c3cc(NC(=O)Cc4ccc(C5CCC5)nc4)ccc3C)nc2n1 [Compound 672, (S)-2-(6-cyclobutylpyridin-3-yl)-N-(3-(1-((2-ethyl-2H-pyrazolo[3,4-b]pyrazin-6-yl)amino)ethyl)-4-methylphenyl) acetamide] | < 300 nM | ≥ 1000 nM
6 | CCn1cc2ncc(N[C@@H](C)c3cc(NC(=O)Cc4cncc(Cl)c4)ccc3C)nc2n1 [Compound 673, (S)-2-(5-chloropyridin-3-yl)-N-(3-(1-((2-ethyl-2H-pyrazolo[3,4-b]pyrazin-6-yl)amino)ethyl)-4-methylphenyl)acetamide] | < 300 nM | < 300 nM
7 | CCn1cc2ncc(N[C@@H](C)c3cc(NC(=O)Cc4ccc(F)c(C)n4)ccc3F)nc2n1 [Compound 674, (S)-N-(3-(1-((2-ethyl-2H-pyrazolo[3,4-b]pyrazin-6-yl)amino)ethyl)-4-fluorophenyl)-2-(5-fluoro-6-methylpyridin-2-yl) acetamide] | < 300 nM | < 300 nM
8 | CCn1cc2ncc(N[C@@H](C)c3cc(NC(=O)Cc4ccc(F)c(C)n4)ccc3C)nc2n1 [Compound 675, (S)-N-(3-(1-((2-ethyl-2H-pyrazolo[3,4-b]pyrazin-6-yl)amino)ethyl)-4-methylphenyl)-2-(5-fluoro-6-methylpyridin-2-yl)acetamide] | < 300 nM | < 300 nM
9 | CCn1cc2ncc(N[C@@H](C)c3cccc(NC(=O)Cc4cc(Cl)ccn4)c3)nc2n1 [Compound 676, (S)-2-(4-chloropyridin-2-yl)-N-(3-(1-((2-ethyl-2H-pyrazolo[3,4-b]pyrazin-6-yl)amino)ethyl)phenyl)acetamide] | 300 to 1000 nM | ≥ 1000 nM
10 | CCn1cc2ncc(N[C@@H](C)c3cc(NC(=O)Cc4cc(Cl)ccn4)ccc3C)nc2n1 [Compound 677, (6)-2-(4-chloropyridin-2-yl)-N-(3-(1-((2-ethyl-2H-pyrazolo[3,4-b]pyrazin-6-yl)amino)ethyl)-4-methylphenyl)acetamide] | < 300 nM | < 300 nM
11 | CCn1cc2ncc(N[C@@H](C)c3cccc(NC(=O)Cc4cc(C)ccn4)c3)nc2n1 [Compound 678, (S)-N-(3-(1-((2-ethyl-2H-pyrazolo[3,4-b]pyrazin-6-yl)amino)ethyl)phenyl)-2-(4-methylpyridin-2-yl)acetamide] | < 300 nM | ≥ 1000 nM
12 | CCn1cc2ncc(N[C@@H](C)c3cc(NC(=O)Cc4cc(C)ccn4)ccc3C)nc2n1 [Compound 679, (S)-N-(3-(1-((2-ethyl-2H-pyrazolo[3,4-b]pyrazin-6-yl)amino)ethyl)-4-methylphenyl)-2-(4-methylpyridin-2-yl) acetamide] | < 300 nM | < 300 nM
13 | CCn1cc2ncc(N[C@@H](C)c3cc(NC(=O)Cc4ccc(C)c(N5CCN(C)CC5)c4)ccc3C)nc2n1 [Compound 680, (S)-N-(3-(1-((2-ethyl-2H-pyrazolo[3,4-b]pyrazin-6-yl)amino)ethyl)-4-methylphenyl)-2-(4-methyl-3-(4-methylpiperazin-1-yl)phenyl) acetamide] | < 300 nM | < 300 nM
14 | CCn1cc2ncc(N[C@@H](C)c3cccc(NC(=O)Cc4ccc(Cl)cn4)c3)nc2n1 [Compound 681, (S)-2-(5-chloropyridin-2-yl)-N-(3-(1-((2-ethyl-2H-pyrazolo[3,4-b]pyrazin-6-yl)amino)ethyl)phenyl)acetamide] | < 300 nM | ≥ 1000 nM
15 | CCn1cc2ncc(N[C@@H](C)c3cccc(NC(=O)Cc4ccc(C5CC5)cn4)c3)nc2n1 [Compound 682, (S)-2-(5-cyclopropylpyridin-2-yl)-N-(3-(1-((2-ethyl-2H-pyrazolo[3,4-b]pyrazin-6-yl)amino)ethyl)phenyl)acetamide] | 300 to 1000 nM | ≥ 1000 nM
16 | CCn1cc2ncc(N[C@@H](C)c3cc(NC(=O)Cc4ccc(C(C)(C)F)cn4)ccc3F)nc2n1 [Compound 683, (S)-N-(3-(1-((2-ethyl-2H-pyrazolo[3,4-b]pyrazin-6-yl)amino)ethyl)-4-fluorophenyl)-2-(5-(2-fluoropropan-2-yl)pyridin-2-yl)acetamide] | 300 to 1000 nM | ≥ 1000 nM
17 | CCn1cc2ncc(N[C@@H](C)c3cc(NC(=O)Cc4cncc(C(F)(F)F)c4)ccc3F)nc2n1 [Compound 685, (S)-N-(3-(1-((2-ethyl-2H-pyrazolo[3,4-b]pyrazin-6-yl)amino)ethyl)-4-fluorophenyl)-2-(5-(trifluoromethyl)pyridin-3-yl) acetamide] | < 300 nM | 300 to 1000 nM
18 | CCn1cc2ncc(N[C@@H](C)c3cccc(NC(=O)Cc4cc(C)c(F)cn4)c3)nc2n1 [Compound 686, (S)-N-(3-(1-((2-ethyl-2H-pyrazolo[3,4-b]pyrazin-6-yl)amino)ethyl)phenyl)-2-(5-fluoro-4-methylpyridin-2-yl) acetamide] | < 300 nM | 300 to 1000 nM
19 | CCn1cc2ncc(N[C@@H](C)c3cc(NC(=O)Cc4cc(C)c(F)cn4)ccc3C)nc2n1 [Compound 687, (S)-N-(3-(1-((2-ethyl-2H-pyrazolo[3,4-b]pyrazin-6-yl)amino)ethyl)-4-methylphenyl)-2-(5-fluoro-4-methylpyridin-2-yl)acetamide] | < 300 nM | < 300 nM
20 | CCn1cc2ncc(N[C@@H](C)c3cccc(NC(=O)Cc4ccc(C(F)(F)F)cn4)c3)nc2n1 [Compound 688, (S)-N-(3-(1-((2-ethyl-2H-pyrazolo[3,4-b]pyrazin-6-yl)amino)ethyl)phenyl)-2-(5-(trifluoromethyl)pyridin-2-yl) acetamide] | < 300 nM | ≥ 1000 nM
21 | CCn1cc2ncc(N[C@@H](C)c3cc(NC(=O)Cc4ccc(C)cn4)ccc3F)nc2n1 [Compound 689, (S)-N-(3-(1-((2-ethyl-2H-pyrazolo[3,4-b]pyrazin-6-yl)amino)ethyl)-4-fluorophenyl)-2-(5-methylpyridin-2-yl) acetamide] | < 300 nM | ≥ 1000 nM
22 | CCn1cc2ncc(N[C@@H](C)c3cc(NC(=O)Cc4ccc(C(C)(C)F)cn4)ccc3C)nc2n1 [Compound 690, (S)-N-(3-(1-((2-ethyl-2H-pyrazolo[3,4-b]pyrazin-6-yl)amino)ethyl)-4-methylphenyl)-2-(5-(2-fluoropropan-2-yl)pyridin-2-yl)acetamide] | 300 to 1000 nM | ≥ 1000 nM
23 | CCn1cc2ncc(N[C@@H](C)c3cc(NC(=O)Cc4cnc(C5CC5)c(F)c4)ccc3F)nc2n1 [Compound 691, (S)-2-(6-cyclopropyl-5-fluoropyridin-3-yl)-N-(3-(1-((2-ethyl-2H-pyrazolo[3,4-b]pyrazin-6-yl)amino)ethyl)-4-fluorophenyl)acetamide] | < 300 nM | ≥ 1000 nM
24 | CCn1cc2ncc(N[C@@H](C)c3cc(NC(=O)Cc4cncc(C(F)(F)F)c4)ccc3C)nc2n1 [Compound 692, (S)-N-(3-(1-((2-ethyl-2H-pyrazolo[3,4-b]pyrazin-6-yl)amino)ethyl)-4-methylphenyl)-2-(5-(trifluoromethyl)pyridin-3-yl)acetamide] | < 300 nM | < 300 nM
25 | CCn1cc2ncc(N[C@@H](C)c3cccc(NC(=O)Cc4cc(C)c(C)cn4)c3)nc2n1 [Compound 693, (S)-2-(4,5-dimethylpyridin-2-yl)-N-(3-(1-((2-ethyl-2H-pyrazolo[3,4-b]pyrazin-6-yl)amino)ethyl)phenyl)acetamide] | < 300 nM | ≥ 1000 nM
26 | CCn1cc2ncc(N[C@@H](C)c3cc(NC(=O)Cc4cc(C)c(C)cn4)ccc3C)nc2n1 [Compound 694, (S)-2-(4,5-dimethylpyridin-2-yl)-N-(3-(1-((2-ethyl-2H-pyrazolo[3,4-b]pyrazin-6-yl)amino)ethyl)-4-methylphenyl) acetamide] | < 300 nM | < 300 nM
27 | CCn1cc2ncc(N[C@@H](C)c3cccc(NC(=O)Cc4cc(C)c(Cl)cn4)c3)nc2n1 [Compound 695, (S)-2-(5-chloro-4-methylpyridin-2-yl)-N-(3-(1-((2-ethyl-2H-pyrazolo[3,4-b]pyrazin-6-yl)amino)ethyl)phenyl)acetamide] | < 300 nM | 300 to 1000 nM
28 | CCn1cc2ncc(N[C@@H](C)c3cc(NC(=O)Cc4cc(C)c(Cl)cn4)ccc3C)nc2n1 [Compound 696, (S)-2-(5-chloro-4-methylpyridin-2-yl)-N-(3-(1-((2-ethyl-2H-pyrazolo[3,4-b]pyrazin-6-yl)amino)ethyl)-4-methylphenyl)acetamide] | < 300 nM | < 300 nM
